Laboratory results as given in ChEMBL document CHEMBL1201862, “PubChem BioAssay data set” (2004).
Calls of active or inactive are those of the source.

Legend:
[1] = Luminescence Cell-Based Dose Retest to Confirm Inhibitors of Cancer Stem Cells. [Related pubchem assays (depositor defined):AID2717, AID2721]; format: functional; details: Homo sapiens
[2] = molecular target: T1, Protein skinhead-1 (Caenorhabditis elegans, UniProt P34707); format: functional
T1 sequence (P34707 whole entry): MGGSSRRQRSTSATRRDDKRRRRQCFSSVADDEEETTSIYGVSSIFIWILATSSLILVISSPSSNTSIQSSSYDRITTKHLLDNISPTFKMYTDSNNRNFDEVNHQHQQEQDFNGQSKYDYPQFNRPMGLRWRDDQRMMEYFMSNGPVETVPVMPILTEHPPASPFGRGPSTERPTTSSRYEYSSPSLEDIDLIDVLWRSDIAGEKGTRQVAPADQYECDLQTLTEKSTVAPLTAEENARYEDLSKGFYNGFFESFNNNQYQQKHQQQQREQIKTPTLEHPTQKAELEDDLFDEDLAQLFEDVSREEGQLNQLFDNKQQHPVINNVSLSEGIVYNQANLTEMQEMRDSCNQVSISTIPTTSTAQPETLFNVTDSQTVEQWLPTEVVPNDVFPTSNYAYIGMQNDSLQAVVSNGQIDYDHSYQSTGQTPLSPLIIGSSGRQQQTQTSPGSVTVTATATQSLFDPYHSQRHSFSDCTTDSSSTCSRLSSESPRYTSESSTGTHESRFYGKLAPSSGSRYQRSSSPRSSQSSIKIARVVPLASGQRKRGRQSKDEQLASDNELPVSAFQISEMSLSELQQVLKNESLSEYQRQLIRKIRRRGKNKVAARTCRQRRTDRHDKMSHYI

[3] = molecular target: T2, Heat shock factor protein 1 (Mus musculus, UniProt P38532); assay: decrease of HSF1-responsive luciferase luminescence – cell-based, NIH3T3, dose retest, confirmation (AID 2382); format: functional;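 note: NIH3T3 fibroblasts with HSF1-driven luciferase reporter stressed by proteasome inhibitor MG132; luminescence from HSF1-driven luciferase expression after 8 hours of MG132 stress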
T2 sequence (P38532 whole entry): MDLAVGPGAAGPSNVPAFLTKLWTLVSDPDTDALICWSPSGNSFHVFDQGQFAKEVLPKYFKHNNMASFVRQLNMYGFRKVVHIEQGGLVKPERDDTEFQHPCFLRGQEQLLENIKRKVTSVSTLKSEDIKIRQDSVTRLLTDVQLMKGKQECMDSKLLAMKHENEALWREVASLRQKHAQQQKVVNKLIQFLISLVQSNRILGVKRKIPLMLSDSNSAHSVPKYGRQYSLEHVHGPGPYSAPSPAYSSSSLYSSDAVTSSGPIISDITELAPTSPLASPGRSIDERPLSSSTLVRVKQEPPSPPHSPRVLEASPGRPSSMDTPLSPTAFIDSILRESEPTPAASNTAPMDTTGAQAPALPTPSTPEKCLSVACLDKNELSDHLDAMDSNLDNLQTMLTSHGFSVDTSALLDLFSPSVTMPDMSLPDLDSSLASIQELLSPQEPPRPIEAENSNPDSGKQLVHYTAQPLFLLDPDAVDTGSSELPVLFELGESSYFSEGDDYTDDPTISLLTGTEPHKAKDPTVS

[4] = molecular target: Cytochrome P450 2C9 (Homo sapiens, UniProt P11712)
[5] = molecular target: Cytochrome P450 2C19 (Homo sapiens, UniProt P33261); assay: Cytochrome panel assay with activity outcomes. Panel member name: p450-cyp2c19 Compounds with AC50 equal or less than 10 uM are considered active; format: functional
[6] = molecular target: T3, Cytochrome P450 1A2 (Homo sapiens, UniProt P05177);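 note: PubChem cytochrome P450 panel assay, CYP1A2 panel member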
T3 sequence (P05177 whole entry): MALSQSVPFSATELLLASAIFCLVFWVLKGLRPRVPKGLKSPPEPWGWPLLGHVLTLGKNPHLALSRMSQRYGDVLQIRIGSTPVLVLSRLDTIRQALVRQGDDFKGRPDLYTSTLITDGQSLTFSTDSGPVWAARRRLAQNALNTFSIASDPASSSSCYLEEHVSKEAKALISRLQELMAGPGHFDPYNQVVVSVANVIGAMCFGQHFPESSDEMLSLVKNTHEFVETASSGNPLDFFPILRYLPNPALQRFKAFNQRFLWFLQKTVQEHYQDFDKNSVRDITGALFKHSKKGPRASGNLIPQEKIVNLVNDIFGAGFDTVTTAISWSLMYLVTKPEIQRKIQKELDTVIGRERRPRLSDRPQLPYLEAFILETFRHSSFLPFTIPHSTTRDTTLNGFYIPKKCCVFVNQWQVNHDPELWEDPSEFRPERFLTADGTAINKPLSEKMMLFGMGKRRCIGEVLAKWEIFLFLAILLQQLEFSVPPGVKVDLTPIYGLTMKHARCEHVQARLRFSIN

[7] = molecular target: Cytochrome P450 2D6 (Homo sapiens, UniProt P10635);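 note: CYP2D6 member of a cytochrome P450 panel assay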
[8] = molecular target: T4, Corticotropin-releasing factor receptor 2/Corticotropin-releasing factor-binding protein (Homo sapiens, UniProt P24387+Q13324); assay: activators of CRF receptor 2 with binding protein – uHTS hits, confirmation (AID 602473); format: functional; details: read-out: EC50_Mean
T4 sequence (Q13324 whole entry): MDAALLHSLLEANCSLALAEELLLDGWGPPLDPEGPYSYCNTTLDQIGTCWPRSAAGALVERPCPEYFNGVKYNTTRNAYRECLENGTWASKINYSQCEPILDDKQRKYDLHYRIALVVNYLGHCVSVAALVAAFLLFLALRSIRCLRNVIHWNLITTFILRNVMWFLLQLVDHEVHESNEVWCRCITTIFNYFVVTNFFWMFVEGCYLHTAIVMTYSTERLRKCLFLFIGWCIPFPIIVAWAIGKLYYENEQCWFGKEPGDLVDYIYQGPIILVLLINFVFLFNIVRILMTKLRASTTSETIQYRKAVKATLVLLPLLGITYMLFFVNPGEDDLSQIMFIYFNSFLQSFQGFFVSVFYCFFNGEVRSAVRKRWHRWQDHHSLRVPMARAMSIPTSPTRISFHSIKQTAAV
T4 sequence (P24387 whole entry): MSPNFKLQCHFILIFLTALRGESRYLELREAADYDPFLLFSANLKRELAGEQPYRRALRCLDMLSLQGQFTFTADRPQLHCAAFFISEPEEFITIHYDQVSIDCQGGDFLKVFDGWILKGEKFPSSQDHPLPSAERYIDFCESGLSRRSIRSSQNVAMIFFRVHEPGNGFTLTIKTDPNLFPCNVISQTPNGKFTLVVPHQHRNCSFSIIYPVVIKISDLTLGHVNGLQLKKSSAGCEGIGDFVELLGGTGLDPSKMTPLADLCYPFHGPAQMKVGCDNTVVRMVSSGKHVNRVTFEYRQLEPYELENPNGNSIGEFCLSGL

Sequence of Cytochrome P450 2C19 (P33261 whole entry): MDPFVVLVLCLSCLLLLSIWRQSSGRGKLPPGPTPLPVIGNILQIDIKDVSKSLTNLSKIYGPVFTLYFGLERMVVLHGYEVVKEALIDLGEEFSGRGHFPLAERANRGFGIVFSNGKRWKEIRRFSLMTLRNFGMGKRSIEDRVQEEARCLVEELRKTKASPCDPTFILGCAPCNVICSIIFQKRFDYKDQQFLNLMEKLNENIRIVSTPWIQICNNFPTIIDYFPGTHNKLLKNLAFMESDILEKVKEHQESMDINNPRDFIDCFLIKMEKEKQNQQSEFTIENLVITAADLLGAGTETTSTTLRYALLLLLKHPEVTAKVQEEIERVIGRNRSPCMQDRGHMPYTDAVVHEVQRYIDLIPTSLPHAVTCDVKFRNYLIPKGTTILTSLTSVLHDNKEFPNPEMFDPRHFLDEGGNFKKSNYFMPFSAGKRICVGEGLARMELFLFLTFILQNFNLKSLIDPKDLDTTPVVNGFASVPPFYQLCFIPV
Sequence of Cytochrome P450 2C9 (P11712 whole entry): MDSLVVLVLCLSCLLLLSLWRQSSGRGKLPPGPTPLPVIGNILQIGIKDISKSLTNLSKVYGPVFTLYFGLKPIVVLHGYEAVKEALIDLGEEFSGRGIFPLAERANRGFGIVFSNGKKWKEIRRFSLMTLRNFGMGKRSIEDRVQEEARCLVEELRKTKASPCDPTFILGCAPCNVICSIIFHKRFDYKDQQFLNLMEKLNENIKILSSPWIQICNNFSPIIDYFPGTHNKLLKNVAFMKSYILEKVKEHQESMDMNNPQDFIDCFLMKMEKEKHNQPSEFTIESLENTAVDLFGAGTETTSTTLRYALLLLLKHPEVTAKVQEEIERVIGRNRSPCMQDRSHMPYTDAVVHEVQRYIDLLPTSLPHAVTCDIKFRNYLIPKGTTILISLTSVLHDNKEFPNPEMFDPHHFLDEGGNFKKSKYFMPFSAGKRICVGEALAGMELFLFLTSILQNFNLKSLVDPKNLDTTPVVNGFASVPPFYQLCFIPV
Sequence of Cytochrome P450 2D6 (P10635 whole entry): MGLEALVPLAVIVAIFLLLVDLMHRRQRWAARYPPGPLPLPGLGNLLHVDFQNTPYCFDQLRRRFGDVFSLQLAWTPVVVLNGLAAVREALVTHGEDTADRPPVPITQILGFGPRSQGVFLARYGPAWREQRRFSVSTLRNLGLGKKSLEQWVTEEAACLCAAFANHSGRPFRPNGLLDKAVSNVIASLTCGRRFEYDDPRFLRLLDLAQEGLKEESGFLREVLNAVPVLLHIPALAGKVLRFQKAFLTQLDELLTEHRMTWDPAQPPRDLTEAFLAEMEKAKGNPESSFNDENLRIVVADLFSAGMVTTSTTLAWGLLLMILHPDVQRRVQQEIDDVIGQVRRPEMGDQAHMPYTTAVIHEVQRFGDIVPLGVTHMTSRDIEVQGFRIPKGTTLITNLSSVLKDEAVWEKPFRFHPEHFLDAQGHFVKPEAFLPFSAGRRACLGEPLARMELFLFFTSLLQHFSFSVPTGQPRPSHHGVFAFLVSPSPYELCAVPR

SMILES: CCOC(=O)c1c(-c2ccc(Cl)cc2)csc1NC(=O)CNCc1ccco1
- AC50 [1]: 2.72 µM (active)

SMILES: Cc1cc(OCCCCN2C(=O)NC(C)(C)C2=O)cc(C)c1Cl
- IC50 [2]: > 100 µM (inactive)

SMILES: CN(Cc1ccccc1)C(=O)CCn1c(=O)oc2ccccc21
- EC50 [3]: > 195 µM (not active)

SMILES: Nc1ccc(/N=N\c2ccccc2)c(N)n1
- AC50 [4]: 15.8 µM (inconclusive)
- AC50 ([5]; read-out: AC50): 7.94 µM (inconclusive)

SMILES: N#Cc1cccc(NC(=O)N2CC[C@@]3(CCCN(S(=O)(=O)c4ccccc4)C3)C2)c1
- AC50 [4]: 39.8 µM (inconclusive)
- AC50 ([5]; read-out: AC50): 39.8 µM (inconclusive)
- AC50 [6]: 25.1 µM (inconclusive)
- AC50 [7]: 39.8 µM (inconclusive)

SMILES: CCOC(=O)c1ccc(NC(=O)COc2ccccc2OC)cc1
- AC50 ([5]; read-out: AC50): 3.98 µM (inconclusive)
- AC50 [6]: 7.08 µM (inconclusive)

SMILES: OC(c1ccccn1)c1c[nH]c2ccccc12 (stereo not drawn)
- IC50 [2]: > 100 µM (inactive)

SMILES: Cc1ccc(C)c(NC(=O)c2sc(Cl)nc2-c2ccccc2)c1
- IC50 [2]: > 100 µM (inactive)

SMILES: CC(C)CN1CC[C@@]2(CCCN(C(=O)c3cc(C(F)(F)F)cc(C(F)(F)F)c3)C2)C1
- AC50 ([5]; read-out: AC50): 39.8 µM (inconclusive)
- AC50 [6]: 25.1 µM (inconclusive)

SMILES: CCn1c(=O)c(C(=O)Nc2ccccc2F)c(O)c2ccccc21
- EC50 [3]: > 195 µM (not active)

SMILES: CCc1cc2c(=O)c(-c3nc4ccccc4n3C)c(C)oc2c(CN(CC)CC)c1O
- AC50 ([5]; read-out: AC50): 3.55 µM (inconclusive)

SMILES: COc1ccc(C2CC(c3ccccc3)=NN2S(=O)(=O)c2ccc(C)cc2)c(OC)c1 (stereo not drawn)
- IC50 [2]: > 100 µM (inactive)

SMILES: O=C(OCC(=O)N1N=C(c2ccc(Cl)cc2)CC1c1ccco1)c1ccccc1O (stereo not drawn)
- IC50 [2]: > 100 µM (inactive)

SMILES: CCCCN=C(S)NNc1c(Cl)cc(Cl)cc1Cl
- EC50 [3]: > 195 µM (not active)

SMILES: Cn1ccnc1SCC(=O)N(C1CCCCC1)C1CCCCC1
- EC50 [3]: > 195 µM (not active)

SMILES: CC(C)(C)NC(=O)c1cccc(NC(=O)Cc2cccs2)c1
- EC50 [3]: > 195 µM (not active)

SMILES: CC(C)c1nc(-c2ccc([N+](=O)[O-])cc2)cs1
- IC50 [2]: 13.4 µM (active)

SMILES: O=C(/C=C/c1ccc2c(c1)OCO2)NCCSCc1c(Cl)cccc1Cl
- AC50 [1]: 1.42 µM (active)

SMILES: Cc1ccc(NC(=O)N2CCCC2C(=O)NCC2CCCCC2)cc1 (stereo not drawn)
- EC50 [3]: > 195 µM (not active)

SMILES: Cn1c(=O)c2ncn(CC(=O)Nc3ccc4c5c(cccc35)CC4)c2n(C)c1=O
- EC50 [3]: > 195 µM (not active)
- IC50 [2]: > 100 µM (inactive)

SMILES: Cc1cccc(N2CCN(C(c3ccccc3)c3nnnn3CC3CCCO3)CC2)c1C (stereo not drawn)
- EC50 [3]: > 195 µM (not active)

SMILES: COc1ccc2nc(N3CCCC(C(=O)NCCCN4CCN(C)CC4)C3)sc2c1 (stereo not drawn)
- AC50 [4]: 4.47 µM (inconclusive)
- AC50 [5]: inconclusive
- AC50 [6]: 12.6 µM (inconclusive)

SMILES: CCOC(=O)c1cc(-c2ccco2)nc2c1c(C)nn2-c1ccccc1
- IC50 [2]: > 100 µM (inactive)

SMILES: O=C(Nc1ccc(Nc2ccccc2)cc1)Nc1ccccc1Cl
- AC50 [1]: 2.12 µM (active)

SMILES: CCOCC(=O)Nc1cccc(Br)c1
- IC50 [2]: > 100 µM (inactive)

SMILES: O=C(COC(=O)[C@H](Cc1ccccc1)N1C(=O)c2ccccc2C1=O)Nc1ccc2c(c1)OCO2
- EC50 [3]: > 195 µM (not active)

SMILES: CC(=O)Nc1cccc(NC(=O)CSc2nnc(Cc3cccn3C)n2-c2ccc(F)cc2)c1
- EC50 [3]: > 195 µM (not active)

SMILES: CC(=O)N(c1ccc2oc(=O)sc2c1)S(=O)(=O)c1ccc(C(=O)O)cc1
- EC50 [3]: > 195 µM (not active)

SMILES: Cc1cccc(CC(=O)NCCn2c(C)cc3ccccc32)c1
- IC50 [2]: > 100 µM (inactive)

SMILES: CCCc1ccc(-c2cc(NC(=O)CSc3nnc(N)s3)n(-c3ccccc3)n2)cc1
- AC50 [1]: 3.72 µM (active)

SMILES: CN(C)CCNC(=O)c1sc2nc(-c3ccccc3)cc(C(F)(F)F)c2c1N
- AC50 [1]: 2.65 µM (active)

SMILES: Cc1ccc(S(=O)(=O)N2CCC(=O)N(C(COCc3ccc(Cl)c(Cl)c3)Cc3ccccc3)CC2)cc1 (stereo not drawn)
- EC50 [8]: 4.29 µM (active)

SMILES: c1nc(NCCN2CCOCC2)c2cc(-c3ccc4c(c3)OCO4)ccc2n1
- AC50 ([5]; read-out: AC50): 39.8 µM (inconclusive)

SMILES: COc1ccc(-n2c(C)cc(/C=C3/SC(=S)N(C)C3=O)c2C)cc1
- EC50 [8]: > 53 µM (inactive)

SMILES: Cn1c(N2CCOCC2)nc(-c2ccccc2)c1-c1ccccc1
- EC50 [3]: > 195 µM (not active)

SMILES: COc1ccc(NC(=O)NCCCN2CCCCC2C)cc1 (stereo not drawn)
- AC50 [4]: 1.26 µM (inconclusive)
- AC50 ([5]; read-out: AC50): 39.8 µM (inconclusive)
- AC50 [6]: 25.1 µM (inconclusive)

SMILES: Nc1nc(Cl)nc(N(c2ccccc2)c2ccccc2)n1
- EC50 [3]: > 195 µM (not active)

SMILES: O=C(NCc1cc(C(F)(F)F)ccc1Cl)c1cccc2c1C(=O)c1ccc(N3CCC(Cc4ccccc4)CC3)cc1S2(=O)=O
- EC50 [8]: 5.99 µM (active)

SMILES: COc1ccc(C(=O)c2ccc3oc(-c4ccc(OC)cc4)c(-c4ccc(O)cc4)c3c2)cc1
- AC50 [1]: 3.31 µM (active)

SMILES: O=c1c2ccccc2oc2ccc(-c3ccc4cc[nH]c4c3)cc12
- IC50 [2]: > 100 µM (inactive)

SMILES: CC(C)CC(C(=O)NCc1ccccn1)N1C(=O)c2ccccc2C1=O (stereo not drawn)
- IC50 [2]: > 100 µM (inactive)

SMILES: COc1ccc(C(C)=O)cc1CN1C(=O)C(C)ON=C1c1cccc(C(F)(F)F)c1 (stereo not drawn)
- IC50 [2]: > 100 µM (inactive)
